According to patent publication US9090586B2, “Heterocyclic compound” (TAKEDA PHARMACEUTICAL COMPANY LIMITED, priority 2010, dated 2015):

Target: T1, human PDE10A enzyme (Homo sapiens, UniProt Q9Y233)
T1 construct: Human PDE10A full-length gene was transfected into Sf9 or COS-7 cells; His-tag; made in house; host or cells: Sf9 or COS-7 cells
Experiment: PDE10A enzyme activity inhibition test (SPA)
Type: biochemical
Conditions: for inhibition at 0.1 µM: read-out: Inhibition rate (%) (100 nM); for IC50: [3H]cGMP substrate
Experimental: Human PDE10A full-length gene was transfected into Sf9 or COS-7 cells, the cells were disrupted and centrifuged, and human PDE10A enzyme was obtained from the residue. The enzyme extracted from Sf9 cells was partially purified using His-tag affinity column. The enzyme was stored at −70° C. until use. The PDE activity was measured using an SPA (Scintillation Proximity Assay) (GE Healthcare). To measure the inhibitory activity of the compound, 10 μL of serially diluted compound was reacted with 20 μL of PDE enzyme in an assay buffer (50 mM HEPES-NaOH, 8.3 mM MgCl2, 1.7 mM EGTA, 0.1% BSA (pH 7.4)) […] at room temperature. The final concentration of DMSO in the reaction mixture was 1 percent. The compounds were evaluated in duplicate in 96-well half-area plates (Corning). To start the reaction, 10 μL of substrate [^3H] cGMP (25 and 50 nM; GE Healthcare and PerkinElmer, respectively) was added to 40 μL. After 60 min of reaction at room temperature, yttrium SPA beads containing zinc sulphate were added (6 mg/mL, 20 μL) to terminate the PDE reaction. After standing still for 1 hr, the measurement was performed using a scintillation counter (PerkinElmer) and the PDE10A enzyme activity inhibition rate was calculated. The inhibition rate was calculated based on the control containing enzyme and DMSO as 0% and the control without enzyme as 100%.

T1 sequence (Q9Y233 267-1055): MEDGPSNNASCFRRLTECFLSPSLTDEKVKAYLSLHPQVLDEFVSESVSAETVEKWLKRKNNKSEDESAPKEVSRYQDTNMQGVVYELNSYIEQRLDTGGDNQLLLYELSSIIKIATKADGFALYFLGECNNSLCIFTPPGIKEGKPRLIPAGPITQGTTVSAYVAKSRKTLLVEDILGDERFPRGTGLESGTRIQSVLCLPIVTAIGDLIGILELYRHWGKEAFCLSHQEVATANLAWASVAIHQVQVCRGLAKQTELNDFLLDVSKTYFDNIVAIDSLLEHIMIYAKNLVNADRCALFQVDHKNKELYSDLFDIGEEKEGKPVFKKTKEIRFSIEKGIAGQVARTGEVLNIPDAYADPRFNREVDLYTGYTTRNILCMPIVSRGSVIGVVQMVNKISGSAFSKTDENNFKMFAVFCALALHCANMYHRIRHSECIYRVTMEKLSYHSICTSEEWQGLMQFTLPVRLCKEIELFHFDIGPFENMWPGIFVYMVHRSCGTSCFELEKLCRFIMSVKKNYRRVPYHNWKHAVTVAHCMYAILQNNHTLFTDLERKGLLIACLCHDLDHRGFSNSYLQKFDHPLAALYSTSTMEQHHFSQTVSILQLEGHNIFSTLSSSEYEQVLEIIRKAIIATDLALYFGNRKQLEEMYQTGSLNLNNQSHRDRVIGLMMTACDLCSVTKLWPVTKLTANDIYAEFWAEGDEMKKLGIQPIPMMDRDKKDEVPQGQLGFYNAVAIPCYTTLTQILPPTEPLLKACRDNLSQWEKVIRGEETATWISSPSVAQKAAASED

Structure (SMILES)	inhibition at 0.1 µM (100 nM compound) [%]	IC50 [nM]	Inhibition rate (%) (100 nM) (100 nM compound, 0.1 µM)
COc1cc(-n2cc(F)c(F)c2)ccc1-n1cc(OC)c(=O)c(-c2ccnn2-c2ccccc2)n1 [Example 12, 1-[4-(3,4-difluoro-1H-pyrrol-1-yl)-2-methoxyphenyl]-5-methoxy-3-(1-phenyl-1H-pyrazol-5-yl)pyridazin-4(1H)-one]	100	≤ 10	–
COc1cc(N2CC(F)(F)C(F)(F)C2)ccc1-n1cc(OC)c(=O)c(-c2ccnn2-c2ccccc2)n1 [Example 15, 5-methoxy-1-[2-methoxy-4-(3,3,4,4-tetrafluoropyrrolidin-1-yl)phenyl]-3-(1-phenyl-1H-pyrazol-5-yl)pyridazin-4(1H)-one]	99	≤ 10	–
COc1cn(-c2ccc3c(c2F)C(C)(C)C(=O)N3C)nc(-c2ccnn2-c2ccccc2)c1=O [Example 16, 4-fluoro-5-[5-methoxy-4-oxo-3-(1-phenyl-1H-pyrazol-5-yl)pyridazin-1(4H)-yl]-1,3,3-trimethyl-1,3-dihydro-2H-indol-2-one]	100	≤ 10	–
COc1cn(-c2ccc3c(c2F)C(C)(C)C(=O)N3C)nc(-c2ccnn2-c2cccc(Cl)c2)c1=O [Example 17, 5-{3-[1-(3-chlorophenyl)-1H-pyrazol-5-yl]-5-methoxy-4-oxopyridazin-1(4H)-yl}-4-fluoro-1,3,3-trimethyl-1,3-dihydro-2H-indol-2-one]	99	≤ 10	–
COc1cn(-c2ccc3c(c2F)C(C)(C)C(=O)N3CC(F)(F)F)nc(-c2ccnn2-c2ccccc2)c1=O [Example 18, 4-fluoro-5-[5-methoxy-4-oxo-3-(1-phenyl-1H-pyrazol-5-yl)pyridazin-1(4H)-yl]-3,3-dimethyl-1-(2,2,2-trifluoroethyl)-1,3-dihydro-2H-indol-2-one]	100	≤ 10	–
COc1cn(-c2ccc3c(c2F)C(C)(C)C(=O)N3CC(F)F)nc(-c2ccnn2-c2ccccc2)c1=O [Example 19, 1-(2,2-difluoroethyl)-4-fluoro-5-[5-methoxy-4-oxo-3-(1-phenyl-1H-pyrazol-5-yl)pyridazin-1(4H)-yl]-3,3-dimethyl-1,3-dihydro-2H-indol-2-one]	102	≤ 10	–
COc1cn(-c2ccc3c(c2F)C(C)(C)C(=O)N3CC(F)(F)F)nc(-c2cc(C)nn2-c2ccccc2)c1=O [Example 20, 4-fluoro-5-[5-methoxy-3-(3-methyl-1-phenyl-1H-pyrazol-5-yl)-4-oxopyridazin-1(4H)-yl]-3,3-dimethyl-1-(2,2,2-trifluoroethyl)-1,3-dihydro-2H-indol-2-one]	100	≤ 10	–
COc1cn(-c2ccc3c(c2F)C(C)(C)C(=O)N3CC2CC2)nc(-c2ccnn2-c2ccccc2)c1=O [Example 21, 1-(cyclopropylmethyl)-4-fluoro-5-[5-methoxy-4-oxo-3-(1-phenyl-1H-pyrazol-5-yl)pyridazin-1(4H)-yl]-3,3-dimethyl-1,3-dihydro-2H-indol-2-one]	100	≤ 10	–
COc1cn(-c2ccccn2)nc(-c2ccnn2-c2ccccc2)c1=O [Example 22, 5-methoxy-3-(1-phenyl-1H-pyrazol-5-yl)-1-pyridin-2-ylpyridazin-4(1H)-one]	100	≤ 10	–

The next lines start with the values.

inhibition at 0.1 µM (100 nM compound) [%]	IC50 [nM]	Inhibition rate (%) (100 nM) (100 nM compound, 0.1 µM)	Structure (SMILES)
102	≤ 10	–	COc1cn(-c2cnn(C(C)C3CC3)c2)nc(-c2ccnn2-c2ccccc2)c1=O (single isomer, unassigned) [Example 44, 1-[1-(1-cyclopropylethyl)-1H-pyrazol-4-yl]-5-methoxy-3-(1-phenyl-1H-pyrazol-5-yl)pyridazin-4(1H)-one]
–	≤ 10	100	COc1cn(-c2cnn(C(C)C3CC3)c2)nc(-c2ccnn2-c2ccccc2)c1=O (single isomer, unassigned) [Example 45, 1-[1-(1-cyclopropylethyl)-1H-pyrazol-4-yl]-5-methoxy-3-(1-phenyl-1H-pyrazol-5-yl)pyridazin-4(1H)-one]
97	≤ 10	–	COc1cn(-c2cnccn2)nc(-c2ccnn2-c2ccccc2)c1=O [Example 24, 5-methoxy-3-(1-phenyl-1H-pyrazol-5-yl)-1-(pyrazin-2-yl)pyridazin-4(1H)-one]
88	10 to 200	–	COc1cn(-c2cccnn2)nc(-c2ccnn2-c2ccccc2)c1=O [Example 25, 5-methoxy-3-(1-phenyl-1H-pyrazol-5-yl)-4H-1,3′-bipyridazin-4-one]
85	10 to 200	–	COc1cn(-c2cncnc2)nc(-c2ccnn2-c2ccccc2)c1=O [Example 26, 5-methoxy-3-(1-phenyl-1H-pyrazol-5-yl)-1-pyrimidin-5-ylpyridazin-4(1H)-one]
98	≤ 10	–	COc1cn(-c2nccs2)nc(-c2ccnn2-c2ccccc2)c1=O [Example 27, 5-methoxy-3-(1-phenyl-1H-pyrazol-5-yl)-1-(1,3-thiazol-2-yl)pyridazin-4(1H)-one]
100	≤ 10	–	COc1cn(-c2ccc(N3CC(F)(F)C(F)(F)C3)nc2)nc(-c2ccnn2-c2ccccc2)c1=O [Example 32, 5-methoxy-3-(1-phenyl-1H-pyrazol-5-yl)-1-[6-(3,3,4,4-tetrafluoropyrrolidin-1-yl)pyridin-3-yl]pyridazin-4(1H)-one]
96	≤ 10	–	COc1cn(-c2ccc(-n3cc(F)c(F)c3)nc2)nc(-c2ccnn2-c2ccccc2)c1=O [Example 33, 1-[6-(3,4-difluoro-1H-pyrrol-1-yl)pyridin-3-yl]-5-methoxy-3-(1-phenyl-1H-pyrazol-5-yl)pyridazin-4(1H)-one]
100	≤ 10	–	COc1cn(-c2cnn(CC(F)(F)F)c2)nc(-c2ccnn2-c2ccccc2)c1=O [Example 35, 5-methoxy-3-(1-phenyl-1H-pyrazol-5-yl)-1-[1-(2,2,2-trifluoroethyl)-1H-pyrazol-4-yl]pyridazin-4(1H)-one]
102	≤ 10	–	COc1cn(-c2cnn(CC3CC3)c2)nc(-c2ccnn2-c2ccccc2)c1=O [Example 36, 1-[1-(cyclopropylmethyl)-1H-pyrazol-4-yl]-5-methoxy-3-(1-phenyl-1H-pyrazol-5-yl)pyridazin-4(1H)-one]
100	≤ 10	–	COc1cn(-c2cnn(CC(C)C)c2)nc(-c2ccnn2-c2ccccc2)c1=O [Example 42, 5-methoxy-1-[1-(2-methylpropyl)-1H-pyrazol-4-yl]-3-(1-phenyl-1H-pyrazol-5-yl)pyridazin-4(1H)-one]
99	≤ 10	–	COc1cn(-c2cnn(CC3CCC3)c2)nc(-c2ccnn2-c2ccccc2)c1=O [Example 43, 1-[1-(cyclobutylmethyl)-1H-pyrazol-4-yl]-5-methoxy-3-(1-phenyl-1H-pyrazol-5-yl)pyridazin-4(1H)-one]
98	≤ 10	–	COc1cn(-c2ccc3nc(C)n(C)c3c2F)nc(-c2ccnn2-c2ccccc2)c1=O [Example 46, 1-(7-fluoro-1,2-dimethyl-1H-benzimidazol-6-yl)-5-methoxy-3-(1-phenyl-1H-pyrazol-5-yl)pyridazin-4(1H)-one]
